Measurements: patent EP1576946A1, “Use of inhibitors of gram-positive cocci in deodorants and antiperspirants” (Henkel Kommanditgesellschaft auf Aktien, priority 2004, dated 2005)

Test system: Anaerococcus octavius (Peptostreptococcus octavius)
Assay: Filter paper/surface method: inhibition zone and growth under the filter disc
Format: cell-based
Protocol: Weiterhin wurden die Wirkstoffe mit Hilfe des Filterpapier/Oberflächenverfahrens vermessen. Der Testkeim Anaerococcus octavius (Peptostreptococcus octavius) war erhältlich als DSM 10024; er wurde 5 Tage bei 37 °C vorinkubiert. 0,3 ml Wirkstofflösung bzw. 0,3 g wirkstoffhaltiges Produkt wurden auf eine Filterpapierscheibe mit einem Durchmesser von 4,5 cm aufgebracht, anschließend wurde die Filterpapierscheibe auf den bakterienhaltigen Agar gelegt. Nach der Inkubationszeit wurde die Größe des gebildeten Hemmhofes vermessen. Bei den Lösungen, für die kein Hemmhof detektiert werden konnte, weil der Wirkstoff nicht in den Agar penetriert war, wurde zusätzlich das Wachstum unter den Filterpapierscheiben beurteilt.

[1] = 22 Gew.-% Aktivsubstanz, medium Wasser, pH after adjustment ca. 4
[2] = 0,5 Gew.-% Aktivsubstanz, medium Wasser, pH tel quel 6,5, after addition of Citronensäure 5,1
[3] = 8 Gew.-% Aktivsubstanz, medium Wasser/ Ethanol (30 Vol.-% / 70 Vol.-%), pH after adjustment 4,2
[4] = 20 Gew.-% Aktivsubstanz, medium Wasser, pH after adjustment 4,2

Aluminium Zirconium Tetrachlorohydrex Gly [REACH AZP 908 (Powder)]
Durchmesser des Hemmhofes [1]: 0 mm
Wachstum unter der Filterscheibe [1]: kein Wachstum

Zinkgluconat
Durchmesser des Hemmhofes [2]: 0 mm
Wachstum unter der Filterscheibe [2]: deutlich gehemmt

CCCCC(CC)COCC(O)CO (stereo not drawn) [Sensiva SC 50, α-Mono-(2-ethylhexyl)glycerinether]
Wachstum unter der Filterscheibe (0,5 Gew.-% Aktivsubstanz, medium Wasser/ Ethanol (50 Vol.-% / 50 Vol.-%), pH tel quel 6,65, after addition of Citronensäure 5,1): deutlich gehemmt
zone of inhibition at 0.5 % (Anaerococcus octavius, read-out: Durchmesser des Hemmhofes): 0 mm

O=C(O)CCCCCCC/C=C\CCCCCCCC(=O)O [Arlatone DCA, 9(Z)-Octadecendicarbonsäure]
Wachstum unter der Filterscheibe (2 Gew.-% Aktivsubstanz, medium Ethanol): kein Wachstum
zone of inhibition at 2 % (Anaerococcus octavius, 2 Gew.-% Aktivsubstanz, medium Ethanol, read-out: Durchmesser des Hemmhofes): 4 mm

Aluminium chlorohydrate
Durchmesser des Hemmhofes [3]: 0 mm
Wachstum unter der Filterscheibe [3]: deutlich gehemmt
Durchmesser des Hemmhofes [4]: 0 mm
Wachstum unter der Filterscheibe [4]: leicht gehemmt
